Where a name gives a salt, the structure may show the parent alone. Read-outs that look alike come from different tables or passages of the source.
How the values were obtained:
[1] = molecular target: T1, CYP1A2 (Homo sapiens, UniProt P05177); assay: P450-Glo CYP1A2 activity in HBV-infected HepaRG cells; type: cell-based; conditions: day 11 p.i.
T1 construct: CYP1A2, CYP2C9, and CYP3A4 activity were determined in HBV-infected HepaRG cells; endogenous in cells; host or cells: differentiated HepaRG cells infected with HBV
T1 sequence (P05177 1-516): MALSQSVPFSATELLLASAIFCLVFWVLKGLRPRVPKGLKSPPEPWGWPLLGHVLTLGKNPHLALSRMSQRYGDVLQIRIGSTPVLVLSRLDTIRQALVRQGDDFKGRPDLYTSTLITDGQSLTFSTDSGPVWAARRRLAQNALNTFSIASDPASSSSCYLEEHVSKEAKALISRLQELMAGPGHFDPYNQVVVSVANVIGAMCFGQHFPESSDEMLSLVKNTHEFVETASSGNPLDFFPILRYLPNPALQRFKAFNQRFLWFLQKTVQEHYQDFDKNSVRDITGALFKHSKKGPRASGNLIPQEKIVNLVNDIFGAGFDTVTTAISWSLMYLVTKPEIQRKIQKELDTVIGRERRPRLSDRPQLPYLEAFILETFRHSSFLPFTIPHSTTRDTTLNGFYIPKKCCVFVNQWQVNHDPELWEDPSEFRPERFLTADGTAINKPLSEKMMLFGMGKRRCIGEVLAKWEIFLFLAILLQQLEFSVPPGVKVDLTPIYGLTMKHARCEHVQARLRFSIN

[2] = molecular target: T2, CYP3A4 (Homo sapiens, UniProt P08684); assay: P450-Glo CYP3A4 activity in HBV-infected HepaRG cells; type: cell-based; conditions: day 11 p.i.
T2 construct: CYP1A2, CYP2C9, and CYP3A4 activity were determined in HBV-infected HepaRG cells; endogenous in cells; host or cells: differentiated HepaRG cells infected with HBV

[3] = molecular target: T3, CYP2C9 (Homo sapiens, UniProt P11712)
[4] = molecular target: T3, CYP2C9; assay: P450-Glo CYP2C9 activity in HBV-infected HepaRG cells
[5] = SKF-525A 100 or 200 μM 1 h twice, or 2 or 20 μM twice for 3 days
[6] = ABT 10 or 20 mM 1 h twice, or 0.1 or 0.2 mM twice for 3 days (days 5 and 8 p.i.)

T3 sequence (P11712 whole entry): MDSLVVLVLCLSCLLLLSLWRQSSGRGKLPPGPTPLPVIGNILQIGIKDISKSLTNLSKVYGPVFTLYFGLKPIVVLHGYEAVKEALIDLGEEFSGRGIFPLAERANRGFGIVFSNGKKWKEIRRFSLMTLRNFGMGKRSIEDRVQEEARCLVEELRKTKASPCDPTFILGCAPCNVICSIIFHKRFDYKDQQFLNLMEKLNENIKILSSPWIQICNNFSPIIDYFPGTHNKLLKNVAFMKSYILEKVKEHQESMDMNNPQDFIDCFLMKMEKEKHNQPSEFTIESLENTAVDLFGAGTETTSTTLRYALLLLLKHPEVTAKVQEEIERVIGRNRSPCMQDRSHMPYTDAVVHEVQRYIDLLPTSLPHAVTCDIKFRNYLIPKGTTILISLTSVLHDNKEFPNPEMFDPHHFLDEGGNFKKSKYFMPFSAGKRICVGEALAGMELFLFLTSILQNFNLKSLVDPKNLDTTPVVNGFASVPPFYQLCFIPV
T2 sequence (P08684 whole entry): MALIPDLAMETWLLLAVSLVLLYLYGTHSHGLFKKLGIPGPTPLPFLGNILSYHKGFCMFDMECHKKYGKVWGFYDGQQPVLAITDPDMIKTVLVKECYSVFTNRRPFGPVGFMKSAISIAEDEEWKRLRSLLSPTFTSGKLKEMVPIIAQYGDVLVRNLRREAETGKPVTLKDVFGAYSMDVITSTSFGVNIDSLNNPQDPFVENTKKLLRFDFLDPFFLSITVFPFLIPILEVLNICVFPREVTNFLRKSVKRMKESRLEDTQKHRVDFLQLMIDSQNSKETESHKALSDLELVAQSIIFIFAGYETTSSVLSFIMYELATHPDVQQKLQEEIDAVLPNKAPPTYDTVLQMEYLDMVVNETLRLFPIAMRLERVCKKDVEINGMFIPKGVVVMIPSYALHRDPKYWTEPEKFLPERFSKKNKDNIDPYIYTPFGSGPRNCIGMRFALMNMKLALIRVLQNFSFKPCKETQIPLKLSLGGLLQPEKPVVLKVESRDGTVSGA

CCCC(C(=O)OCCN(CC)CC)(c1ccccc1)c1ccccc1 [SKF-525A, proadifen hydrochloride]
CYP1A2 inhibition relative to other CYPs [1, 5]: inhibited CYP1A2 less
CYP3A4 inhibition relative to other CYPs [2, 5]: inhibited CYP3A4 better than CYP2C9

CC(=O)N1CCN(c2ccc(OCC3COC(Cn4ccnc4)(c4ccc(Cl)cc4Cl)O3)cc2)CC1 (stereo not shown) [ketoconazole]
CYP2C9 inhibition [3]: also inhibit

Nn1nnc2ccccc21 [ABT, 1-aminobenzotriazole]
inhibition of CYP1A2 [1, 6]: > 90%
inhibition of CYP3A4 [2, 6]: > 90%
inhibition of CYP2C9 ([4]; ABT 10 or 20 mM 1 h twice, or 0.1 or 0.2 mM twice for 3 days (days 5 and 8 p.i.), day 11 p.i.): 72%-75%

Cc1nc2c([nH]1)c(=O)n(C)c(=O)n2Cc1ccco1 [furafylline]
CYP2C9 inhibition ([4]; furafylline alone, titration): also inhibit

Reference: patent publication US20190234940A1, “METABOLIC RESTRICTION IN CELL-BASED ASSAYS” (priority 2016, published 2019)
